Reference: paper PMC10815500, “Design of Two New Sulfur Derivatives of Perezone: In Silico Study Simulation Targeting PARP-1 and In Vitro Study Validation Using Cancer Cell Lines” (International Journal of Molecular Sciences, 2024)
Like-named read-outs stand apart in the source and are kept apart here.

Tests used:
A-549 = assay: MTT cytotoxic assay, A-549 cells; assay type: cell-based; settings: Homo sapiens, A549, cancer cell line, 48 h, read-out: Inhibitory concentration (IC50) A-549
Method: (§1) At the end of this time, 20 µL of the MTT solution (5 mg/mL) was added to each well and incubated for 4 h in the dark at 37 °C and 5% CO2. The supernatant was decanted, and the resulting formazan was dissolved in isopropyl alcohol with 4 mM HCl solution and was read in a UV/Vis reader at 590 nm. The results obtained were plotted, and the IC50 was obtained through linear regression.

MDA-MB-231 = assay: MTT cytotoxic assay, MDA-MB-231 cells; assay type: cell-based; settings: Homo sapiens, cancer cell line, 48 h, read-out: Inhibitory concentration (IC50) MDA-MB-231
Method: as §1

HELA = assay: MTT cytotoxic assay, Hela cells; assay type: cell-based; settings: Homo sapiens, cancer cell line, 48 h, read-out: Inhibitory concentration (IC50) HELA
Method: as §1

MCF-7 = assay: MTT cytotoxic assay, MCF-7 cells; assay type: cell-based; settings: Homo sapiens, MCF7, cancer cell line, 48 h, read-out: Inhibitory concentration (IC50) MCF-7
Method: as §1

Rat endothelial cells = assay: MTT cytotoxic assay, healthy endothelial cells; assay type: cell-based; settings: Endothelial cell, normal cell line, 48 h, read-out: Inhibitory concentration (IC50) Rat endothelial cells
Method: as §1, with “regression. […]” for “regression.”
(§2) of the incubation, an MTT assay was performed to determine the viability of cells under treatment. Each bar in the chart indicates the percentage means and standard error of the mean. […]
(§3) healthy endothelial cells, VERO cells, and mixed culture of microglia, employing perezone (dotted) as a control. Cells from each line were incubated without control and with increased concentrations of the studied compounds during 48 h (n= 8). At the end of the incubation, an MTT assay was performed to determine the viability of cells under treatment. Each bar in the chart indicates the percentage means and […]
(§4) (1 picture or pasted object on this page, not shown here)

VERO = assay: MTT cytotoxic assay, VERO cells; assay type: cell-based; settings: Chlorocebus sabaeus, normal cell line, 48 h, read-out: Inhibitory concentration (IC50) VERO
Method: as §1, with “regression. […]” for “regression.”
as §2, §3, §4

Mix cells = assay: MTT cytotoxic assay, mixed culture of microglia; assay type: cell-based; settings: normal cells, 48 h, read-out: Inhibitory concentration (IC50) Mix cells
Method: as §1, with “regression. […]” for “regression.”
as §2, §3, §4

PARP-1 enzyme [1] = molecular target: T1, PARP-1 enzyme (Homo sapiens, UniProt P09874); assay: PARP-1 inhibition assay (colorimetric assay kit)
Text: Absorbances were obtained at 450 nm using a UV/Vis spectrophotometer E max Precision microplate reader (Molecular Devices, San Jose, CA, USA).

PARP-1 enzyme [2] = molecular target: T1, PARP-1 enzyme; design: purchased BPS Bioscience Inc. 80580; settings: previously demonstrated; read-out: IC50 (PARP-1 inhibition) of perezone and natural derivatives; cited from earlier work

T1 sequence (P09874 whole entry): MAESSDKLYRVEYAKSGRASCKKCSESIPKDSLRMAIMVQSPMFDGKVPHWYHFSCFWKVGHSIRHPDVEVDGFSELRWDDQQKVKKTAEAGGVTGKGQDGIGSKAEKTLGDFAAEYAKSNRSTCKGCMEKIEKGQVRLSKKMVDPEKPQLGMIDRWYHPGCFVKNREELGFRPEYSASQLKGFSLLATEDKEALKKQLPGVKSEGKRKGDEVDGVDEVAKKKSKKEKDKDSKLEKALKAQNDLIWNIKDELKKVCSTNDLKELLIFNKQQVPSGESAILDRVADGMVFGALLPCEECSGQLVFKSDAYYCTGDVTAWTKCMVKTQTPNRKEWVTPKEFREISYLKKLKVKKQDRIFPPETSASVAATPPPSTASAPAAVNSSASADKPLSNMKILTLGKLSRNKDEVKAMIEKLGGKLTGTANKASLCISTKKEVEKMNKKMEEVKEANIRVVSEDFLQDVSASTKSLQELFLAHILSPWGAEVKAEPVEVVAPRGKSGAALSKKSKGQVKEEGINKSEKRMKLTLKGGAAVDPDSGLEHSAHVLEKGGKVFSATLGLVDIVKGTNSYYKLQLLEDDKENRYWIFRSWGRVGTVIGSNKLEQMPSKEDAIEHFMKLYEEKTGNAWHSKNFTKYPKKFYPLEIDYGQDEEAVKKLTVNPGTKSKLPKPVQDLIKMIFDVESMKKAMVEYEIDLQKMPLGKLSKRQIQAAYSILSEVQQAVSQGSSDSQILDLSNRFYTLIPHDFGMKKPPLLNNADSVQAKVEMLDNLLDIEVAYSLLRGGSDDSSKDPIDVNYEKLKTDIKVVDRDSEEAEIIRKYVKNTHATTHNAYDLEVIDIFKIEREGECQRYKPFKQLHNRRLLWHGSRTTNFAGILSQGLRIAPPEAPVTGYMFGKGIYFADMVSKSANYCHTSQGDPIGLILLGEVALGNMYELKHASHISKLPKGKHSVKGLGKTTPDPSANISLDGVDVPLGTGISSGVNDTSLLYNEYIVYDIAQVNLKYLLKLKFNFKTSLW

Structure (SMILES)	IC50 (A-549) [µM]	IC50 (MDA-MB-231) [µM]	IC50 (HELA) [µM]	IC50 (MCF-7) [µM]	IC50 (Rat endothelial cells) [µM]	IC50 (VERO) [µM]	IC50 (Mix cells) [µM]	IC50 (PARP-1 enzyme [1]) [µM]	IC50 (PARP-1 enzyme [2]) [µM]
CC(C)=CCCC(C)C1=C(O)C(=O)C(C)=C(Sc2ccc(F)cc2CO)C1=O (centres unmarked) [Compound 9, 2-((4-fluoro-2-(hydroxymethyl)phenyl)thio)-5-hydroxy-3-methyl-6-(6-methylhept-5-en-2-yl)cyclohexa-2.5-diene-1,4-dione]	> 200	145	200	83.2	> 200	186	179	0.317	–
CC(C)=CCC[C@@H](C)C1=C(O)C(=O)C(C)=CC1=O [Compound 1, perezone]	144	7.8	42.3	53.2	> 200	312	63.1	–	181
CC(C)=CCCC(C)C1=C(O)C(=O)C(C)=C(Sc2ccc(CC(=O)O)cc2)C1=O (centres unmarked) [Compound 10, 2-(4-((hydroxy-2-methyl-5-(6-methylhept-5-en-2-yl)-3,6-dioxocyclohexa-1,4-dien-1-yl)thio)phenyl)acetic acid]	> 200	> 200	> 200	> 200	> 200	168	> 200	0.32	–
C/C=C(/C)C(=O)OC1=C([C@H](C)CCC=C(C)C)C(=O)C=C(C)C1=O [Compound 2, perezone angelate]	–	–	–	–	–	–	–	–	5.25
CC(C)=CCC[C@@H](C)C1=C(O)C(=O)C(C)=C(O)C1=O [Compound 3, hydroxyperezone]	–	–	–	–	–	–	–	–	320
